Source: patent publication US9504691B2, “Finafloxacin suspension compositions” (ALCON RESEARCH, LTD., priority 2012, dated 2016)
≈ marks a conversion by molar mass, not a printed value.

Columns and labels:
[1] = Stability of finafloxacin free base polymorphs at high temperatures; format: physicochemical; conditions: temperatures such as those encountered during heat sterilization; compared with forms B and C
From the text: A preferred form of finafloxacin for use in embodiments of the present invention is finafloxacin free base. At least three polymorphs of the finafloxacin free base have been identified (forms A, B, and C). […] The crystalline form of finafloxacin free base form A has an X-ray diffraction spectrum substantially the same as the X-ray powder diffraction spectrum shown in FIG. 1.

[2] = Stability studies of finafloxacin formulations; format: physicochemical; conditions: aqueous solutions at pH between 5 and 6
Method: Exploratory stability studies were conducted to physical and chemical stability characteristics of formulations of the present invention.

[3] = system: Ciprofloxacin-Susceptible P. aeruginosa; test: In vitro antimicrobial susceptibility (MIC), Ciprofloxacin-Susceptible P. aeruginosa; format: cell-based; conditions: 14 isolates; for MIC Range: in µg/mL (unit assumed)
Method: (§1) A finafloxacin solution composition at pH 5.8 and 7.3 was compared to ciprofloxacin and ofloxacin compositions using standard in vitro antimicrobial susceptibility tests (M07-08 Methods for Dilution Antimicrobial Susceptibility Tests for Bacteria that Grow Aerobically; Approved Standard-Eighth Edition (January 2009, Clinical and Laboratory Standards Institute), herein incorporated by reference). Minimum inhibitory concentrations (MIC50) were determined using organisms commonly found in otic and ophthalmic infections. The MIC50 was the lowest concentration of antibiotic that prevented growth of the test organism, as determined visually by a lack of turbidity.
(§2) The results of the experiment are presented below in TABLES 1-5. At acidic pH, finafloxacin generally had greater activity against both Gram-positive and Gram-negative organisms than the fluoroquinolones ciprofloxacin and ofloxacin, both of which are used for the treatment of otic infections. Higher activity under acidic conditions is important for an otic formulation since a low pH formulation is preferred to slow bacterial and fungal growth, as well as the fact the pH environment of the external ear canal is ˜pH 6.

E. coli = test: In vitro antimicrobial susceptibility (MIC), E. coli; format: cell-based; conditions: 10 isolates
Method: as §1, §2

[4] = system: Ciprofloxacin-Resistant P. aeruginosa; test: In vitro antimicrobial susceptibility (MIC), Ciprofloxacin-Resistant P. aeruginosa; format: cell-based; conditions: 11 isolates; for MIC Range: in µg/mL (unit assumed)
Method: as §1, §2

[5] = system: Ciprofloxacin-Susceptible S. aureus; test: In vitro antimicrobial susceptibility (MIC), Ciprofloxacin-Susceptible S. aureus; format: cell-based; conditions: 8 isolates; for MIC Range: in µg/mL (unit assumed)
Method: as §1, §2

[6] = system: Ciprofloxacin-Resistant S. aureus; test: In vitro antimicrobial susceptibility (MIC), Ciprofloxacin-Resistant S. aureus; format: cell-based; conditions: 12 isolates; for MIC Range: in µg/mL (unit assumed); for MIC50 / MIC90: unit assumed
Method: as §1, §2

[7] = pH 5.8, in µg/mL (unit assumed)
[8] = pH 7.3, in µg/mL (unit assumed)

| Compound | MIC50 ([3]; pH 5.8) [µg/mL] | MIC90 ([3]; pH 5.8) [µg/mL] | MIC Range ([3]; pH 5.8) | MIC50 ([3]; pH 7.3) [µg/mL] | MIC90 ([3]; pH 7.3) [µg/mL] | MIC Range ([3]; pH 7.3) | MIC50 (E. coli; pH 5.8) [µg/mL] | MIC90 (E. coli; [7]) | MIC50 (E. coli; pH 7.3) [µg/mL] | MIC90 (E. coli; [8]) | MIC50 ([4]; pH 5.8) [µg/mL] | MIC90 ([4]; pH 5.8) [µg/mL] | MIC50 ([4]; pH 7.3) [µg/mL] | MIC90 ([4]; pH 7.3) [µg/mL] | MIC50 ([5]; pH 5.8) [µg/mL] | MIC50 ([5]; pH 7.3) [µg/mL] | MIC Range ([5]; pH 7.3) | MIC50 ([6]; pH 5.8) [µg/mL] | MIC90 ([6]; pH 5.8) [µg/mL] | MIC Range ([6]; pH 7.3) | further results |
| --- | --- | --- | --- | --- | --- | --- | --- | --- | --- | --- | --- | --- | --- | --- | --- | --- | --- | --- | --- | --- | --- |
| N#Cc1c(N2C[C@@H]3NCCO[C@H]3C2)c(F)cc2c(=O)c(C(=O)O)cn(C3CC3)c12 [finafloxacin free base form A] |  |  |  |  |  |  |  |  |  |  |  |  |  |  |  |  |  |  |  |  | stability of polymorph at high temperatures [1]: most stable at high temperatures |
| N#Cc1c(N2C[C@@H]3NCCO[C@H]3C2)c(F)cc2c(=O)c(C(=O)O)cn(C3CC3)c12 [Fina., 8-cyano-1-cyclopropyl-6-fluoro-7-[(4aS,7aS)-hexahydropyrrolo[3,4-b]-1,4-oxazin-6(2H)-yl]-1,4-dihydro-4-oxo-3-quinolinecarboxylic acid] | 1 (≈ 2.51 µM) | 4 (≈ 10 µM) | 0.25-4 | 4 (≈ 10 µM) | 16 (≈ 40.2 µM) | 2-16 | 4 (≈ 10 µM) | 8 | 32 (≈ 80.3 µM) | 64 | 16 (≈ 40.2 µM) | 512 (≈ 1290 µM) | 512 (≈ 1290 µM) | > 512 | 0.016 (≈ 0.0402 µM) | 0.125 (≈ 0.314 µM) | 0.016-0.25 | 4 (≈ 10 µM) | 8 (≈ 20.1 µM) | 2-16 | precipitate formation in stability studies [2]: precipitates form; MIC Range (E. coli; [7]): 0.0078-8; MIC Range (E. coli; [8]): 0.008-64; MIC Range ([4]; pH 5.8): 2-512; MIC Range ([5]; pH 5.8): 0.008-0.125; MIC Range ([6]; pH 5.8): 0.5-8; MIC50 ([6]; pH 7.3): 16 µg/mL (≈ 40.2 µM); MIC90 ([6]; pH 7.3): 16 µg/mL (≈ 40.2 µM) |
| O=C(O)c1cn(C2CC2)c2cc(N3CCNCC3)c(F)cc2c1=O [Ciprofloxacin, ciprofloxacin] | 1 (≈ 3.02 µM) | 8 (≈ 24.1 µM) | 0.125-8 | 0.5 (≈ 1.51 µM) | 2 (≈ 6.04 µM) | 0.063-2 | 256 (≈ 773 µM) | >1024 | 16 (≈ 48.3 µM) | 128 | 64 (≈ 193 µM) | > 512 | 16 (≈ 48.3 µM) | 512 (≈ 1550 µM) | 1 (≈ 3.02 µM) | 0.25 (≈ 0.754 µM) | 0.125-1 | 128 (≈ 386 µM) | > 256 | 4-128 | MIC Range (E. coli; pH 7.3): ≦0.008-128; MIC Range ([4]; pH 7.3): 4-512; MIC50 ([6]; pH 7.3): 128 µg/mL (≈ 386 µM); MIC90 ([6]; pH 7.3): 128 µg/mL (≈ 386 µM) |
| CC1COc2c(N3CCN(C)CC3)c(F)cc3c(=O)c(C(=O)O)cn1c23 (stereo not drawn) [Ofloxacin, ofloxacin] | 4 (≈ 11.1 µM) | 32 (≈ 88.6 µM) | 1-32 | 2 (≈ 5.53 µM) | 4 (≈ 11.1 µM) | 1-4 | 512 (≈ 1420 µM) | 512 | 16 (≈ 44.3 µM) | 16 | 256 (≈ 708 µM) | > 512 | 64 (≈ 177 µM) | > 512 | 1 (≈ 2.77 µM) | 0.25 (≈ 0.692 µM) | 0.125-0.5 | 64 (≈ 177 µM) | > 512 | 2-256 | MIC Range (E. coli; [7]): 0.25-512; MIC Range (E. coli; [8]): 0.016-16; MIC Range ([5]; pH 5.8): 0.5-64; MIC50 ([6]; pH 7.3): 32 µg/mL (≈ 88.6 µM); MIC90 ([6]; pH 7.3): 256 µg/mL (≈ 708 µM) |
